Read-outs that look alike come from different tables or passages of the source.

By Vd is commonly meant the apparent volume that relates the amount in the body to the concentration in plasma or blood. A low value points to confinement near the circulation.

Series [1] has as its system L-type Ca^2+ current (ICa). The series is described as follows: calcium current (ICa) changes in ventricular myocytes with NCX inhibitor. Format: cell-based, canine. The source says: In this example the data from publication by Oravecz et.al. was used, where authors have attempted to clarify the underlying mechanism of the limited inotropic action of selective sodium-calcium exchange (NCX) inhibition by a novel inhibitor molecule (ORM-10962) on canine ventricular myocytes. […] The forward mode operation of NCX is considered as the main route of Ca^2+ removal balancing the Ca^2+influx generated by the L-type Ca^2+ current (ICa) and the reverse mode NCX activity. […] These experimental data have been analyzed in the present invention. […] In order to perform time convolution directly, the concentration of ORM-10962 should have been known in the target compartment, but here only the effect size (current measured) has been reported.

Series [2] relates to L-type Ca^2+ current (ICa). The note with it: steady-state conditions; cited from earlier work.
Series [3] can be described thus: caffeine transport in membrane-separated chip, control tests (bare membrane). The note with it: 0.25 mg/mL. The class given is in vitro ADME. As for the experimental part: In this example data of caffeine transport measurements disclosed in publication are analyzed with a new method. […] The membrane had 0.4 micrometer pore size and was made of polyester track etched (PETE) insert, which was used bare (control tests) and with a double layer of cells (actual tests): human umbilical vein endothelial cells (HUVECs) and BeWo cells (derived from a human choriocarcinoma) to represent the endothelium in the fetal interface and the epithelium in the maternal interface. The mean data used are from three independent experiments.

Series [4] has as its system placental barrier (HUVECs and BeWo cells). The series is described as follows: caffeine transport in placenta-on-a-chip, actual tests (double cells layer). Format: in vitro ADME, human. The note with it: 0.25 mg/mL.
For series [5] the following is noted: cited from earlier work; for Tested c2(t): 100 mg, mean of 12, cumulative.
The nature of a further series: clinical. The conditions noted are these: human, in vivo. The text has this: The method used in publication relies on fractional order derivatives with a multi-compartmental model using Laplace transform, which is not a common operation a lab technician usually able to perform. […] The resulting simplified equation for time changes of the concentration in the blood plasma (=the target compartment in the terminology of the recent invention), designated as c2(t) in [6], was expressed with six unknown parameters (d, k02, k21, α1, α2 and the lag time) as:
Clinical data of Popovic et al. have been used representing evaluation of diclofenac pharmacokinetics in a small number of healthy adults during a bioequivalence trial. In the spirit of the present invention, the data from were taken as cumulative concentration of diclofenac, averaged for all 12 patients. Here the initial mass of the drug was known of 100 mg, and the instant volume of distribution (VOD-2) was directly quantifiable by diving this mass for the measured cumulative concentration analyzed (Table 2).

Series [6] can be described thus: gentamicin elution from coated Ti-6Al-4V disks into 2 mL distilled water at 37° C. Format: physicochemical. The note with it: for c2(t), gentamicin concentration in the target compartment: distilled water 37° C.; for Remained in the coating: of 1395 μg/disk. As for the experimental part:
In this example the most detailed in vitro testing conditions have been used. Disk of diameter 15.5 mm and thickness of 2 mm made of medical titanium Grade 5 (Ti-6Al-4V) alloy were uniformly coated with a mixture of 1395 μg/disk gentamicin palmitate and 3745 μg/disk palmitic acid in triplicate (9 disks=3 disks×3 repetitions).
Disks were placed into a glass tube filled with 2 mL distilled water at constant temperature 37° C. and aliquots of 0.050 mL were periodically extracted without refilling the remining volume. The concentration of gentamicin in these samples was measured in mg/L and based on this, the amount of gentamicin in the remaining solution was calculated. The procedure was repeated until 336 h have been accumulated, and the average of three measurements has been calculated, Table 5.
After 336 hours of measurements, totally 0.5 mL of liquid is removed and about 60 μg of the drug is taken off the system. This represents of 25% of the total liquid volume and about 23.5% of the total drug released from the disk. With unknown solubility from the beginning, it is difficult to say how this drug removal affects the solubility rate, diffusion rate (concentration gradient uneven) and about the release kinetics in general (besides just making a curve fitting). As liquid is being periodically removed, the VOD-2 in the target compartment is getting smaller from 2 mL to 1.5 mL (being not constant) and thus the concentration of gentamicin there (c2(t)) is affected too.
For the method of the present invention, exact VOD-1 for the source compartment has been first calculated. For the density of gentamicin palmitate of 1.5 g/cc and palmitic acid of 0.86 g/cc, taking into account the disk surface area of 188.69 mm^2, the expected dense coating thickness is about 28 μm at the beginning of the test, leading to the VOD-1 value (for the source compartment) of 5.285 mm^3. Since VOD-2 is not constant due to aliquots takeoffs, the coefficient of partition is not constant either and will change with time, approaching an equilibrium value (Leq).

Where [7] appears, read: least-squares fit in [6], slow release 100 mg tablet.

Regarding `O=C(CN1CCC(O)CC1)Nc1ccc(Oc2ccc3c(c2)CCC(c2ccccc2)O3)nc1` (stereo not shown) [ORM-10962], in series [1] (ICa change per μM of the added drug), the “efficacy parameter LCa” value is listed as 42.123 nA/μM. Further, in series [1] (calcium current in myocytes), the characteristic time came to 1.69 s and the “non-dimensional transport constant K” value is listed as 104.5. Further, in series [2], the “reduction of ICa amplitude in the presence vs. absence of the inhibitor” value was “significantly greater”.

`Cn1c(=O)c2c(ncn2C)n(C)c1=O` [caffeine]: in series [3], the “Characteristic time τ” value is given as 40 min, the “Transport constant K” value is on record as 162.77 and the “kinetic parameter β” value is on record as 2.0-2.9. The “Coefficient of partition Leq” value in series [3] (Control (no cells)) is recorded as 5.61. The “Coefficient of partition Leq” value in series [4] (Actual (double cells layer)) was 35.5. Besides, in series [4] (human), the “Characteristic time τ” value is 27 min, the “Transport constant K” value was found to be 6697.34 and the “kinetic parameter β” value is on record as 3.2-5.4.

On to `O=C(O)Cc1ccccc1Nc1c(Cl)cccc1Cl` [diclofenac], for which the “Tested c2(t)” value was 0.192 mg/mL in series [5] (1.0 h); 1.783 mg/mL in series [5] (1.5 h); 4.725 mg/mL in series [5] (2.0 h); 7.283 mg/mL in series [5] (2.5 h); 9.500 mg/mL in series [5] (3 h); 11.150 mg/mL in series [5] (4 h). The “Tested c2(t)” value in series [5] (6 h) was 12.333 mg/mL; in series [5] (8 h), 12.858 mg/mL; in series [5] (12 h), 12.900 mg/mL; in series [5] (24 h), 13.000 mg/mL. Further, the “fitted parameter d of fractional compartmental model” value in series [5] (setting [7]) was 22.79±16.41. Moreover, the “fitted parameter k02 of fractional compartmental model” value in series [5] (setting [7]) is reported as 1.51±1.05. Moreover, the “kinetic parameter β” value in the series “clinical” is listed as > 1; in “clinical” (1.5 h), 5.538; in the series “clinical” (2 h) it was 4.884; in the series “clinical” (2.5 h), 4.480; in “clinical” (3 h) it was 4.256; in the series “clinical” (4 h) it was 3.875. The “kinetic parameter β” value was determined as 3.388 in “clinical” (6 h), 3.266 in “clinical” (8 h), 3.471 in “clinical” (12 h) and 3.388 in “clinical” (24 h). Besides, the distribution volume (Vd) at 1 h in “clinical” (100 mg) amounted to 522 L. In addition, the Vd at 1.5 h in “clinical” (100 mg) is 56.1 L. The Vd at 2 h in “clinical” (100 mg) was 21.2 L. Further, in the series “clinical” (100 mg), the volume of distribution (Vd) at 2.5 h is 13.7 L. The compound also yielded a Vd at 3 h in “clinical” (100 mg) of 10.5 L. This compound yielded a distribution volume (Vd) at 4 h in the series “clinical” (100 mg) of 8.97 L. This compound registered a Vd at 6 h in “clinical” (100 mg) of 8.11 L. The compound further displayed a distribution volume (Vd) at 8 h in “clinical” (100 mg) of 7.78 L. For the same compound, in “clinical” (100 mg), the Vd at 12 h was determined as 7.75 L. This compound showed a Vd at 24 h in the series “clinical” (100 mg) of 7.69 L. Moreover, the “Calculated c2(t)” value is reported as 0.141 mg/mL in the series “clinical” (1 h); 1.216 mg/mL in “clinical” (1.5 h); 3.818 mg/mL in the series “clinical” (2 h); 6.832 mg/mL in “clinical” (2.5 h); 9.093 mg/mL in “clinical” (3 h); 11.349 mg/mL in the series “clinical” (4 h). Moreover, the “Calculated c2(t)” value in “clinical” (6 h) is recorded as 12.560 mg/mL; in “clinical” (8 h) it was 12.846 mg/mL; in the series “clinical” (12 h) it was 13.001 mg/mL; in “clinical” (24 h), 13.073 mg/mL. Further, the “Dr (generalized Deborah rate number)” value in “clinical” (1.5 h) is given as 644.65 ×10^6; in the series “clinical” (2 h), 244.03 ×10^6; in the series “clinical” (2.5 h), 124.66 ×10^6; in the series “clinical” (3 h) it was 75.67 ×10^6; in the series “clinical” (4 h), 37.46 ×10^6; in the series “clinical” (6 h) it was 16.35 ×10^6. The “Dr (generalized Deborah rate number)” value in “clinical” (8 h) is given as 10.07 ×10^6; in “clinical” (12 h), 5.80 ×10^6; in the series “clinical” (24 h), 3.07 ×10^6.

For gentamicin, the “Sample gentamicin amount, Average” value in series [6] (average of S1-S3, 1 h) worked out at 187.2 µg; in series [6] (average of S1-S3, 3 h), 221.2 µg; in series [6] (average of S1-S3, 6 h) it was 171.9 µg; in series [6] (average of S1-S3, 24 h), 191.1 µg; in series [6] (average of S1-S3, 48 h), 195.1 µg; in series [6] (average of S1-S3, 72 h), 189.4 µg. Moreover, the “Sample gentamicin amount, Average” value in series [6] (average of S1-S3, 96 h) was 199.9 µg; in series [6] (average of S1-S3, 168 h), 241.0 µg; in series [6] (average of S1-S3, 264 h), 247.5 µg; in series [6] (average of S1-S3, 336 h), 255.3 µg. Also, the “c2(t), gentamicin concentration in the target compartment” value was found to be 93.6 mg/L in series [6] (1 h); 113.4 mg/L in series [6] (3 h); 90.5 mg/L in series [6] (6 h); 103.3 mg/L in series [6] (24 h); 108.4 mg/L in series [6] (48 h); 108.3 mg/L in series [6] (72 h). The “c2(t), gentamicin concentration in the target compartment” value turned out to be 117.6 mg/L in series [6] (96 h), 146.1 mg/L in series [6] (168 h), 154.7 mg/L in series [6] (264 h) and 164.7 mg/L in series [6] (336 h). Further, the “Remained in the coating” value in series [6] (1 h) was found to be 1207.8 µg; in series [6] (3 h), 1173.8 µg; in series [6] (6 h), 1223.1 µg; in series [6] (24 h) it was 1203.9 µg; in series [6] (48 h), 1199.9 µg; in series [6] (72 h) it was 1205.6 µg. The “Remained in the coating” value was 1195.1 µg in series [6] (96 h), 1154.0 µg in series [6] (168 h), 1147.5 µg in series [6] (264 h) and 1139.7 µg in series [6] (336 h).

For gentamicin palmitate, the “kinetic parameter β” value in series [6] (not constant, FIG. 12) is listed as “well below unity”.

The values are drawn from patent US20240047019A1, “MODEL-FREE TIME-INVARIANT EVALUATION OF TRANSPORT AND EFFICACY OF CHEMICALS AND DRUGS” (Seqvera Ltd. Oy, priority 2022, published 2024).
